{"source": "patent US10683121B2", "about": "“Method for preparation of research organisms” (BIOSYSTEMS TECHNOLOGY LIMITED, priority 2015, dated 2020)", "key": {"[1]": {"test_system": "culturable microorganisms on the surface of G. mellonella larvae", "experiment": "Measurement of surface contamination of larvae after alcohol decontamination (PBS wash plated on LB agar)", "assay_type": "cell-based", "details": "for percentage reduction in surface contaminants compared to control: n=10 (FIG. 1)", "method": "Individual G. mellonella larva from groups of 10 were immersed thrice into 1 ml of PBS using sterilised forceps. The PBS wash was serially diluted, plated onto Luria Broth (LB) agar and incubated at 37° C. for 24 h. Any colonies of organisms visible after this period were counted. They may optionally be identified to species level, for example by use of 16S RNA sequencing. Ethanol was diluted with sterile water to 70% or 50% (v/v). We tested two different decontamination techniques. […] To assess the microbial flora after decontamination, we used the PBS washing method outlined above. Using the “bath” method, different lengths of time for decontamination were tested. […] The PBS was plated on LB agar; plates and G. mellonella larvae were incubated at 37° C. for 24 h. The health of larvae was monitored and contaminants on the plates counted. Further concentrations and decontamination treatment periods were studied. In each case, ten Galleria larvae were used, placed into a sterile mesh tray and immersed using the “dip” method into isopropyl alcohol, methanol or ethanol, prepared to varying concentrations by dilution with sterile water as described above. The treatment conditions were: Larvae were patted dry on paper towel and grasped with sterile forceps dip larvae individually into PBS three times, for measurement of surface contamination as described above."}, "[2]": {"test_system": "G. mellonella larvae", "details": "single 20 s bath exposure to 50% (v/v), 24 hours", "procedure": "Final instar G. mellonella larvae were obtained from Live Foods UK and kept on woodchip at 15° C. until use. The larvae were used within two weeks of arrival. The Galleria larvae were screened for colour, weight and size before use. Larvae in a weight range between 0.2-0.3 g and light cream in colour were selected for experiments. Injections were carried out using a Hamilton syringe with 5 μl dispenser; 10 μl of inoculum was used per larva in each injection. The injection was performed into the right foreleg. Phosphate Buffer Saline (PBS, pH 7.2) was used as a control inoculum as it should not kill or harm the larvae.\nWe injected larvae with PBS before or after decontamination. […] For the second group, only 10 μl PBS was injected into the right foreleg, with no preliminary decontamination. All larvae were placed into an incubator at 37° C. for 24 h and monitored for health and survival.\nFinally, we investigated whether decontamination of the larvae improved the survival of larvae which were subsequently injected with PBS. […] These larvae were dried and then injected 10 μl PBS into the right foreleg. The larvae were placed at 37° C. and survival recorded over the next 24 hours."}, "[3]": {"test_system": "G. mellonella larvae", "details": "in vivo", "method": "The larvae were used within two weeks of arrival. […] Larvae in a weight range between 0.2-0.3 g and light cream in colour were selected for experiments. […] The injection was performed into the right foreleg.\nUsing the “bath” method, different lengths of time for decontamination were tested. Using sterile tweezers each larvae was rolled in 20 ml of 50% ethanol for 10 s, 20 s, 30 s or 60 s, patted dry with blue roll and dipped in sterile PBS. The PBS was plated on LB agar; plates and G. mellonella larvae were incubated at 37° C. for 24 h. The health of larvae was monitored and contaminants on the plates counted.\nFurther concentrations and decontamination treatment periods were studied. In each case, ten Galleria larvae were used, placed into a sterile mesh tray and immersed using the “dip” method into isopropyl alcohol, methanol or ethanol, prepared to varying concentrations by dilution with sterile water as described above. The treatment conditions were:\nThese contaminants can be introduced into the larva haemolymph through the injection point when challenging larvae. We believe that the deaths we have seen in past experiments in control groups challenged with PBS was a consequence of the introduction of this microbial flora into the body cavity of the larvae. Deaths in control groups can make the interpretation of results from test groups difficult. Therefore, the plan in this study was to identify a way of surface decontaminating the larvae, so that deaths in control groups were avoided, and therefore improving the quality of the data obtained from experiments using G. mellonella larvae. Galleria larvae are scored as dead when there is no movement when gently probed with a pipette tip. Colour is also an indicator of a response to infection or injury as such larvae produce melanin which creates a colour change of cream to pale or dark brown (4)."}}, "note": "Read-outs that look alike come from different tables or passages of the source."}
{"smiles": "CCO", "note": "[Ethanol, ethanol]", "values": [{"measurement": "% reduction in microbial surface contamination", "setting": "[1]; 40%, 20 s immersion (dip)", "value": 95.7, "unit": "%"}, {"measurement": "% reduction in microbial surface contamination", "setting": "[1]; 40%, 40 s immersion (dip)", "value": 99.2, "unit": "%"}, {"measurement": "percentage reduction in surface contaminants compared to control", "setting": "[1]; 50% ethanol, bath technique", "value": 99.99, "unit": "%"}, {"measurement": "percentage reduction in surface contaminants compared to control", "setting": "[1]; 50% ethanol, dip technique", "value": 99.99, "unit": "%"}, {"measurement": "% reduction in microbial surface contamination", "setting": "[1]; 50%, 20 s immersion (dip)", "value": 99.0, "unit": "%"}, {"measurement": "% reduction in microbial surface contamination", "setting": "[1]; 50%, 40 s immersion (dip)", "value": 98.9, "unit": "%"}, {"measurement": "% reduction in microbial surface contamination", "setting": "[1]; 50%, 50 s immersion (dip)", "value": 99.4, "unit": "%"}, {"measurement": "% reduction in microbial surface contamination", "setting": "[1]; 60%, 20 s immersion (dip)", "value": 98.4, "unit": "%"}, {"measurement": "% reduction in microbial surface contamination", "setting": "[1]; 60%, 40 s immersion (dip)", "value": 99.1, "unit": "%"}, {"measurement": "percentage reduction in surface contaminants compared to control", "setting": "[1]; 70% ethanol, bath technique", "value": 99.98, "unit": "%"}, {"measurement": "percentage reduction in surface contaminants compared to control", "setting": "[1]; 70% ethanol, dip technique", "value": 99.52, "unit": "%"}, {"measurement": "groups of larvae with 100% survival after PBS injection", "setting": "[2]; 10 μl PBS into right foreleg, 37° C., groups of 10", "value": "19/20"}, {"measurement": "reduction in deaths versus un-decontaminated larvae injected with PBS", "setting": "[2]; PBS injection", "value": 83, "unit": "%"}, {"measurement": "larval survival 24 hrs", "setting": "[3]; Galleria mellonella, 40 %", "value": "10/10"}, {"measurement": "larval survival 24 hrs", "setting": "[3]; Galleria mellonella, 50 %", "value": "10/10"}, {"measurement": "larval survival 24 hrs", "setting": "[3]; Galleria mellonella, 60 %", "value": "10/10"}, {"measurement": "larval survival 48 hrs", "setting": "[3]; Galleria mellonella, 48 h, 40 %", "value": "10/10"}, {"measurement": "larval survival 48 hrs", "setting": "[3]; Galleria mellonella, 48 h, 50 %", "value": "10/10"}, {"measurement": "Observations at 48 h (death)", "setting": "[3]; Galleria mellonella, 48 h, 50 % (v/v)", "value": 15, "unit": "% death"}, {"measurement": "larval survival 72 hrs", "setting": "[3]; Galleria mellonella, 40 %", "value": "10/10"}, {"measurement": "larval survival 72 hrs", "setting": "[3]; Galleria mellonella, 50 %", "value": "10/10"}, {"measurement": "Observations at 48 h", "setting": "[3]", "value": "No death or pigment change"}]}
{"smiles": "CC(C)O", "note": "[Isopropyl alcohol, isopropanol]", "values": [{"measurement": "% reduction in microbial surface contamination", "setting": "[1]; 50%, 20 s immersion (dip)", "value": 99.9, "unit": "%"}, {"measurement": "% reduction in microbial surface contamination", "setting": "[1]; 50%, 40 s immersion (dip)", "value": 99.9, "unit": "%"}, {"measurement": "% reduction in microbial surface contamination", "setting": "[1]; 70%, 20 s immersion (dip)", "value": 99.9, "unit": "%"}, {"measurement": "% reduction in microbial surface contamination", "setting": "[1]; 70%, 40 s immersion (dip)", "value": 99.8, "unit": "%"}]}
{"smiles": "CO", "note": "[Methanol, methanol]", "values": [{"measurement": "% reduction in microbial surface contamination", "setting": "[1]; 50%, 20 s immersion (dip)", "value": 99.0, "unit": "%"}, {"measurement": "% reduction in microbial surface contamination", "setting": "[1]; 50%, 40 s immersion (dip)", "value": 99.7, "unit": "%"}, {"measurement": "% reduction in microbial surface contamination", "setting": "[1]; 70%, 20 s immersion (dip)", "value": 99.9, "unit": "%"}, {"measurement": "% reduction in microbial surface contamination", "setting": "[1]; 70%, 40 s immersion (dip)", "value": 99.9, "unit": "%"}]}
